Data set [1] can be described thus: cells. It is filed as functional, cell-based.
A short description of data set [2]: cells. It is filed as functional, cell-based. This is another data set of the same source.
The nature of data set [3]: NIH-3T3 fibroblast cytotoxicity, dose response, cytotoxicity control, cell-based, fluorescence, Alamar Blue, secondary assay (AID 2327).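 Also: NIH-3T3 mouse fibroblasts cultured with fluconazole at 8 µg/mL.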 It is filed as functional. For orientation: Resazurin is reduced to fluorescent resorufin, in cell work by metabolically active cells.
A short description of data set [4]: fluconazole-exposed Candida albicans growth modulators – fluorescence, retest, confirmation (AID 2467). The data set is classed as functional, cell-based.
The target in a further data set is Cytochrome P450 2C19 (Homo sapiens, UniProt P33261). In words: Cytochrome panel assay with activity outcomes. Panel member name: p450-cyp2c19 Compounds with AC50 equal or less than 10 uM are considered active. It is filed as functional.
Cytochrome P450 2C19, sequence (P33261 whole entry): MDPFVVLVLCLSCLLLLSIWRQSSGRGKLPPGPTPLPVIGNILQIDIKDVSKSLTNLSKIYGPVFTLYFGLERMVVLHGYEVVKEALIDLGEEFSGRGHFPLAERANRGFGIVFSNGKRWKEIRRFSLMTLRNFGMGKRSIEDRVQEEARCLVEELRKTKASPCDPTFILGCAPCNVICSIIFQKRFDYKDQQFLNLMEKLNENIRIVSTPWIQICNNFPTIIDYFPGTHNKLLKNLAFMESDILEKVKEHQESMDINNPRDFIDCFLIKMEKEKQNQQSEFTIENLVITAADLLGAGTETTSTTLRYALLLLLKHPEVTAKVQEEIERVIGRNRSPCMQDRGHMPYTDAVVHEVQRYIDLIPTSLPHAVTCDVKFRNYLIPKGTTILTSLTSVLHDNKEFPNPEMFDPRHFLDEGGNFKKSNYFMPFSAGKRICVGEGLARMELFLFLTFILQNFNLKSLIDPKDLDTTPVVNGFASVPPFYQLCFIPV
In a further data set the target is T1, Cytochrome P450 1A2 (Homo sapiens, UniProt P05177).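 Also: PubChem cytochrome P450 panel assay, CYP1A2 panel member.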
T1 sequence (P05177 whole entry): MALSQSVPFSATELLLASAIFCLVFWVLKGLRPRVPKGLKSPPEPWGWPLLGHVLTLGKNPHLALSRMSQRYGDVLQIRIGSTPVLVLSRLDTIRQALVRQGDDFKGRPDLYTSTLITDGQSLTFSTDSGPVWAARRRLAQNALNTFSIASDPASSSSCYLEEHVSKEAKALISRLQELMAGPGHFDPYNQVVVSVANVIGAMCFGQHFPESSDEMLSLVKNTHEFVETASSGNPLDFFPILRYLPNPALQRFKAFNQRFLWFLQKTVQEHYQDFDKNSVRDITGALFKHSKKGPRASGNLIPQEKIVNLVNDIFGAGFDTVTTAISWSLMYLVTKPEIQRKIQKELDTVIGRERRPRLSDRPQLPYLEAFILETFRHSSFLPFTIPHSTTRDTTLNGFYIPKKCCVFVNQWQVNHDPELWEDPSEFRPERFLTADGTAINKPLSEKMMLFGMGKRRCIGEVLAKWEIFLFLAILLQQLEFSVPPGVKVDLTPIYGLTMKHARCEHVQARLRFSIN

The next data set has as its target Cytochrome P450 2C9 (Homo sapiens, UniProt P11712).
Data set [5] deals with T2, Polyadenylate-binding protein 1 (Homo sapiens, UniProt P11940). The experiment in a line: MLLE domain peptide-binding blockers, IC50 – biochemical, fluorescence polarization, FITC-PAM2 peptide, dose response (AID 602259). The data set is classed as functional. The conditions noted are these: read-out: IC50_Mean. (In general: In fluorescence polarisation assays a small probe gives low polarisation when free and higher when bound to something large.)
T2 sequence (P11940 whole entry, the tested form may be a part): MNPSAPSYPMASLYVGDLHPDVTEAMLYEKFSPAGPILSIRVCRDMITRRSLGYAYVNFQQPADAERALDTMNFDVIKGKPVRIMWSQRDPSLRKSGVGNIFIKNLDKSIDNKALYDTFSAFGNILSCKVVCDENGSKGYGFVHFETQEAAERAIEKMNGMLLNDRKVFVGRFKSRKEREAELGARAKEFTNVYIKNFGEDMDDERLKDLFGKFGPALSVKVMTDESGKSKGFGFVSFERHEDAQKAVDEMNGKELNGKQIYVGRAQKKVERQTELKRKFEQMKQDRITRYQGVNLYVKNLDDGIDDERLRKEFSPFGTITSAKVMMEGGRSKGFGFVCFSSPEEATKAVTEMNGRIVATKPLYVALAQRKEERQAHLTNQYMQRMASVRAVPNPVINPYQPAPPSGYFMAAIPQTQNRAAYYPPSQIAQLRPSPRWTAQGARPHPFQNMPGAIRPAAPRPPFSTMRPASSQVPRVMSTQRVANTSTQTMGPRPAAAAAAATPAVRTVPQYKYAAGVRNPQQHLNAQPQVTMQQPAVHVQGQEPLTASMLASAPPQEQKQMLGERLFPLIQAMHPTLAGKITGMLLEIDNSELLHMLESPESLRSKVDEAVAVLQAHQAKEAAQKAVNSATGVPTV

Data set [6] deals with T2, Polyadenylate-binding protein 1. In words: MLLE binding blockers, Cy5 peptide tracer – biochemical, fluorescence polarization, Cy5-PAM2 peptide, secondary, miRNA deadenylation inhibitor project, dose response (AID 602260). The data set is classed as functional. The conditions noted are these: read-out: IC50_Mean.
Data set [7] can be described thus: P. falciparum Dd2 growth inhibitors, dose response, SYBR Green, cherry-picked samples (AID 1159567). The data set is classed as functional, cell-based.
A further data set addresses Cytochrome P450 3A4 (Homo sapiens, UniProt P08684).
Data set [8] has as its target T3, Calpain-2 catalytic subunit (Sus scrofa, UniProt P43367).
T3 sequence (P43367 whole entry): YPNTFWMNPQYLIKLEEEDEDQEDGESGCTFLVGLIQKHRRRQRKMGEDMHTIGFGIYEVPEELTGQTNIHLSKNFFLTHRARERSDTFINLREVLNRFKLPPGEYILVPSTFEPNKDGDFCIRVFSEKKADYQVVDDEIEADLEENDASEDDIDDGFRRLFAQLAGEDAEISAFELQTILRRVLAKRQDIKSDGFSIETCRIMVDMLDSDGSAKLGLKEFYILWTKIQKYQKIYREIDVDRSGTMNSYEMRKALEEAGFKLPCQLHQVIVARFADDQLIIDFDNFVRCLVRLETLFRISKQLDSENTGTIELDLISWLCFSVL
In words: m-calpain protease blockers, concentration series – biochemical, fluorogenic peptide substrate, dose response (AID 1420). The data set is classed as functional.

For another data set, the target named is Cytochrome P450 2D6 (Homo sapiens, UniProt P10635).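 Also: CYP2D6 member of a cytochrome P450 panel assay.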
Cytochrome P450 2D6, sequence (P10635 whole entry): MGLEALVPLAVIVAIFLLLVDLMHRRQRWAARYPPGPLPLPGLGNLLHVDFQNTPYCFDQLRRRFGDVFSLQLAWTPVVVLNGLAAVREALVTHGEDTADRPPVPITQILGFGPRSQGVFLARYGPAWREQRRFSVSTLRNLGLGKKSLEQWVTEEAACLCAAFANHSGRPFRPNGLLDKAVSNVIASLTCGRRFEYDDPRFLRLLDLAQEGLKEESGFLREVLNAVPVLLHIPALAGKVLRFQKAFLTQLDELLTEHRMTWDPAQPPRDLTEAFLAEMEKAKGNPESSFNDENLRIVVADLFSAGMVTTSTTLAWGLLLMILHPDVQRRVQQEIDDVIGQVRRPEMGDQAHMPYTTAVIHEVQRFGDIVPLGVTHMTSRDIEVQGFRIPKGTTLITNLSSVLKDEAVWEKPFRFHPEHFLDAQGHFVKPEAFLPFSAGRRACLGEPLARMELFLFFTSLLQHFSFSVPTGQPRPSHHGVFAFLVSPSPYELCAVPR
Data set [9] addresses T4, Replicative DNA helicase DnaB (Mycobacterium tuberculosis, UniProt P9WMR3).
T4 sequence (P9WMR3 whole entry): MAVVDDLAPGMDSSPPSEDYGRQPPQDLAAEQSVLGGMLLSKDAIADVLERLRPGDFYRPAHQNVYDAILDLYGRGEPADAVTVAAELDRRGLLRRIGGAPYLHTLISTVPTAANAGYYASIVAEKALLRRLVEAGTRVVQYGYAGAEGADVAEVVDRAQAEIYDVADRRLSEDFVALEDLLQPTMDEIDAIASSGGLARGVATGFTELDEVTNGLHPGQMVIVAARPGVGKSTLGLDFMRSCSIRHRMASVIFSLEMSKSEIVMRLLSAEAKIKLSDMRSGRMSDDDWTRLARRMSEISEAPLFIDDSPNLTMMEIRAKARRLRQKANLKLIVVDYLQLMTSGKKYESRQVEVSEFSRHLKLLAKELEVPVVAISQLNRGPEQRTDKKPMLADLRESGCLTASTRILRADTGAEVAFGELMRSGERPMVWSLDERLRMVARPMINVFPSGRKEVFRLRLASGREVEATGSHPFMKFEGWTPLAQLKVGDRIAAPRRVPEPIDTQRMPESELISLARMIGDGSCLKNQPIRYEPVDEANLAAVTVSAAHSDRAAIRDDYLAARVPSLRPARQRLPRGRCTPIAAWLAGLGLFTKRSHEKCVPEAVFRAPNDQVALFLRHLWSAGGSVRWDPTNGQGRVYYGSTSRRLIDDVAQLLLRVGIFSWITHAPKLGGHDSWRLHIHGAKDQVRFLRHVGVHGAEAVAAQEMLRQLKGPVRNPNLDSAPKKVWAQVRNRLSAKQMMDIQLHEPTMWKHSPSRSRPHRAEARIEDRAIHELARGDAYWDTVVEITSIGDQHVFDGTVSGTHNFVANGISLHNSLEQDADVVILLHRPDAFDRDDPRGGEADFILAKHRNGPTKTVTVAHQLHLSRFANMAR
In words: DnaB intein splicing inhibitors, dose response, biochemical, cell-free fluorescence (AID 449749). The data set is classed as functional.

The next data set has as its target T5, Protein RecA (Mycobacterium tuberculosis, UniProt P9WHJ3).
T5 sequence (P9WHJ3 whole entry): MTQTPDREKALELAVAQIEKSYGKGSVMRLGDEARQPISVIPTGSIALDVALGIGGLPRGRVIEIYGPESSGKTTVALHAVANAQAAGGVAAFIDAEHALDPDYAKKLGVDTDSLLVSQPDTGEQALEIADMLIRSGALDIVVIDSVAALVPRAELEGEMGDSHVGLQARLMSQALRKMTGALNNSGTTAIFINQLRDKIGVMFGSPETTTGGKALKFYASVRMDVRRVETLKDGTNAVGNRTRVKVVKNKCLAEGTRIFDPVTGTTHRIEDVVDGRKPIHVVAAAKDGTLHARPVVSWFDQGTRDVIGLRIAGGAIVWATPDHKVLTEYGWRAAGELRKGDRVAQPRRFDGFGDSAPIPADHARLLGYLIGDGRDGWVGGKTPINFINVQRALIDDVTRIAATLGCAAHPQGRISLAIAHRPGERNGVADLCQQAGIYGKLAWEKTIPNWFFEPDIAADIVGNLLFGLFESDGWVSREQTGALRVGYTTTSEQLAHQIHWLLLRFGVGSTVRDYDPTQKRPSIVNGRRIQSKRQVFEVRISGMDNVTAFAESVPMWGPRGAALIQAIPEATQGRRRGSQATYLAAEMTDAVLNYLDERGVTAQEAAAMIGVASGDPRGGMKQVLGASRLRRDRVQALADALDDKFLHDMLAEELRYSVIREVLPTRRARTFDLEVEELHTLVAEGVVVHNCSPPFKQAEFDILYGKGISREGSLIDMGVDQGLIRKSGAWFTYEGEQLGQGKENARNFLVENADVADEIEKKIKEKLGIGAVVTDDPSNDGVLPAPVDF
In words: Fluorescence Cell-Free Homogeneous Dose Retest to Identify Inhibitors of RecA-Intein Splicing Activity. [Related pubchem assays (depositor defined):AID2097, AID2223, AID489010, AID492950]. The data set is classed as functional.

SMILES strings stand for the structures. The source made the active and inactive calls.

Cytochrome P450 2C9, sequence (P11712 whole entry, the tested form may be a part): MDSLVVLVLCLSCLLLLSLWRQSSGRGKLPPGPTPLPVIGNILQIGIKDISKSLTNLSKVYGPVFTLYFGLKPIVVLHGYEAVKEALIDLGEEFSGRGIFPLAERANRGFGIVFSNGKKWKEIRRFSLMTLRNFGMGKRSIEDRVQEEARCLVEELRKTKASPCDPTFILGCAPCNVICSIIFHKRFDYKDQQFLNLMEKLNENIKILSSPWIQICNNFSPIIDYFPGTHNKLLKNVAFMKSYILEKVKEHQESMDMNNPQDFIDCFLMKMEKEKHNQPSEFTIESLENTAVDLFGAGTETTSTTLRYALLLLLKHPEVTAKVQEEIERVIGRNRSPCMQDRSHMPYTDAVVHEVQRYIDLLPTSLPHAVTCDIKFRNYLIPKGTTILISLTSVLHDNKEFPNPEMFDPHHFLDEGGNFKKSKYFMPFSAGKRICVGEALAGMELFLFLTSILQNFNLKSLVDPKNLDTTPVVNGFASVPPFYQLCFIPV
Cytochrome P450 3A4, sequence (P08684 whole entry): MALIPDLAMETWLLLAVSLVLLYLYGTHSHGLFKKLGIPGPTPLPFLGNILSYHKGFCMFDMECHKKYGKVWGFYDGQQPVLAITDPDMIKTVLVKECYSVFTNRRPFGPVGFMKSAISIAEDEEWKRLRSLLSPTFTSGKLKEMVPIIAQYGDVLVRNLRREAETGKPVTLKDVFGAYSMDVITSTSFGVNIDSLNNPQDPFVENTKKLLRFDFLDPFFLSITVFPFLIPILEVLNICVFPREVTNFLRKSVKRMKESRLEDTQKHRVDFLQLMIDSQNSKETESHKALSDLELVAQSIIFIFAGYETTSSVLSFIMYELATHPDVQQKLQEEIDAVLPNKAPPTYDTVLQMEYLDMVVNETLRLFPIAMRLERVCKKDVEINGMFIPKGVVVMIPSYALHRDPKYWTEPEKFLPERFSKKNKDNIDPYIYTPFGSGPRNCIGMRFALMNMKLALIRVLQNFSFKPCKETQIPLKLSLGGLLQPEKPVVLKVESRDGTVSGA

What is called EC50 is the concentration needed to bring the measured effect to its halfway point. With `O=C1Nc2ccc(Cl)cc2/C1=C/C1CC=CCC1` (stereo unspecified), the figures for the EC50 in the data set “cells [1]” and in the data set “cells [2]” were 61.2 µM (active) and > 350 µM (not active), respectively.
For the molecule `NN=C(S)Nc1cccc(Cl)c1`, the figures for the EC50 in data set [3] and in [4] were > 150 µM (inconclusive) and > 38 µM (not active), respectively.
The term AC50 denotes the midpoint of the concentration-response curve, whichever way the signal moves. Take `CC1Cc2ccccc2N1C(=O)CCN1C(=O)C2C3C=CC(C3)C2C1=O` (stereo unspecified): the AC50 on Cytochrome P450 2C19 (read-out: AC50) is 10 µM (inconclusive); on Cytochrome P450 1A2, 10 µM (inconclusive); at Cytochrome P450 2C9, “inconclusive”.
For the molecule `COc1ccc(-c2nc(C#N)c(N3CCN(C(=O)c4ccco4)CC3)o2)cc1OC`, the EC50 in the data set “cells [1]” and in “cells [2]” was > 350 µM (not active) in each case.
In the case of `Cc1nc2ccccc2n2c(-c3ccccc3)c3c(=O)n(C)c(=O)n(C)c3c12`, the EC50 in the data set “cells [1]” and in “cells [2]” was > 350 µM (not active) in each case.
As to `Cc1ccc(N2C(=O)C3C4C=CC(CN=C(S)Nc5cccc(Cl)c5)(O4)C3C2=O)cc1` (stereo unspecified), the IC50 in data set [5] and in [6] was > 66 µM (inactive) each time.
Take `CCOc1cc(C)ccc1OCc1nnc(SCC(=O)c2cccc([N+](=O)[O-])c2)n1CC`: the AC50 result on Cytochrome P450 2C9 is “inconclusive”.
For the molecule `COC(=O)c1[nH]c2cc(C)ccc2c1NC(=O)CN1CCc2cc(OC)c(OC)cc2C1`, the EC50 is > 150 µM (inactive) in data set [3] and > 38 µM (not active) in data set [4].
In the case of `Cc1cc(SCC(=O)c2cccs2)nc2c(C)cccc12`, the AC50 entry at Cytochrome P450 2C9 is “inconclusive”.
With `C/C=C/c1ccccc1[C@@H]1[C@@H](CO)N(S(=O)(=O)c2cccc(F)c2)[C@H]1C#N`, the AC50 in data set [7] was 6.96 µM (active).
Consider `Cc1cc(C)c(S(=O)(=O)NNC(=O)C2CCN(Cc3ccccc3)CC2)c(C)c1`, for which the AC50 on Cytochrome P450 3A4 was 22.4 µM (inconclusive); on Cytochrome P450 2C9, “inconclusive”.
Take `CN(Cc1ccccc1)C(=O)CC(=O)N(C)Cc1ccccc1`: the EC50 in the data set “cells [1]” and in the data set “cells [2]” was > 350 µM (not active) in each case.
As for `Cc1c(C(=O)N2CCC(C)CC2)sc2ncnc(N3CCN(c4ccccc4)CC3)c12`, the IC50 in data set [8] is listed as 19 µM (not active).
As to `CCCCNS(=O)(=O)c1ccc(OC)c(Cl)c1Cl`, the concentration at half-maximal activity (AC50) on Cytochrome P450 1A2 is 4.47 µM (inconclusive); at Cytochrome P450 2C9, “inconclusive”.
For the molecule `CC(C)CNCC(=O)N1c2ccccc2Sc2ccccc21.O=C(O)C(=O)O`, the AC50 was 15.8 µM (inconclusive) at Cytochrome P450 1A2, “inconclusive” on Cytochrome P450 2C9 and 28.2 µM (inconclusive) at Cytochrome P450 2D6.
For the molecule `CC(=O)N1CC[C@@H]2[C@@H](CO)Nc3ccc(C#Cc4ccccc4F)cc3[C@@H]21`, in data set [7], the AC50 was 10.7 µM (active).
As for `COc1ccc(Cl)cc1NC(=O)NCCCl`, the AC50 result at Cytochrome P450 2C9 is “inconclusive”.
On to `Cc1ccc(SCC(=O)c2sc(-c3ccccc3)nc2C)cc1`, for which the IC50 in data set [8] is given as 6.06 µM (not active).
With `Cc1ccc(C(=O)NC(=S)Nc2ccc(N3CCN(C(=O)c4ccco4)CC3)cc2)cc1`, the IC50 in data set [5] and in data set [6] was > 66 µM (inactive) each time.
As to `CCc1ccc(CNC(=O)CCC(=O)N2Cc3cccc(OC)c3Oc3ncccc32)cc1`, the values for the EC50 in [3] and in data set [4] were > 160 µM (inactive) and > 38 µM (not active), respectively.
With `CCOc1ccc(CCNC(=O)CN2CCN(Cc3ccc(F)cc3)C2=O)cc1OCC`, the IC50 in data set [8] was > 50 µM (not active).
On to `COc1ccc2c(Cc3c4ccccc4cc4ccccc34)cncc2c1O`, for which the AC50 result at Cytochrome P450 2C9 is “inconclusive”; on Cytochrome P450 2D6, 3.16 µM (inconclusive).
Regarding `O=C(Oc1ccc(-c2ccccc2)cc1)N1CCCCC1`, in data set [8], the IC50 is reported as 1.11 µM (not active).
`Cn1nc(C(C)(C)C)cc1C(=O)Sc1cccc(Br)c1`: in [9], the AC50 was 16.4 µM (active). Moreover, at Protein RecA, the EC50 is 37.1 µM (inconclusive). Also, the IC50 in data set [5] and in [6] was > 66 µM (inactive) throughout.
With `O=C1c2ccccc2C(=O)N1CC1=CCS(=O)(=O)C1`, the IC50 in data set [5] and in data set [6] was > 66 µM (inactive) throughout.
For the molecule `Oc1ccc(Br)cc1/C=N/c1cccn2cc(-c3ccccc3)nc12`, the IC50 in [5] and in data set [6] was > 66 µM (inactive) throughout.
Regarding `O=C(Cc1ccccc1Cl)NCCCn1ccnc1`, the IC50 in data set [8] is given as > 50 µM (not active).
As for `COc1ccc2c3c([nH]c2c1)[C@@H](CO)N(Cc1ccccc1)CC31CCN(C(=O)c2cccnc2)CC1`, in data set [7], the AC50 is 4.55 µM (active).
For `COc1ccc2c3c([nH]c2c1)[C@H](CO)N(Cc1ccccc1F)CC31CN(C(=O)C2CCC2)C1`, the AC50 in data set [7] is 7.75 µM (active).
As for `COc1ccc(S(=O)(=O)N(C(=O)C(C)C)c2ccc3oc(=O)sc3c2)cc1`, the IC50 in data set [5] and in data set [6] was > 66 µM (inactive) each time.
As to `N=C(NNC(=O)c1ccccc1)c1cc2ccccc2oc1=O`, the IC50 in [8] is 48.5 µM (not active).
On the same count and under the same terms, for `CC(C)Cn1c(N)c(C(=O)COC(=O)c2cccc(F)c2)c(=O)n(C)c1=O` the value was 16.2 µM (not active).
As to `O=C(Nc1ccccn1)c1ccco1`, the AC50 result on Cytochrome P450 2C19 and at Cytochrome P450 2C9 was “inconclusive” throughout.

(Values after ChEMBL document CHEMBL1201862, “PubChem BioAssay data set” (2004).)
